Measured values taken from the supplement of paper PMC10307832.

Legend:
Experiment in all cases: relative viability (nuclei count vs DMSO), 5 days (fraction); higher = more cells survive
TGX 221 + Olaparib = compound: CC1=CN2C(=O)C=C(N=C2C(=C1)C(C)NC3=CC=CC=C3)N4CCOCC4 [TGX 221] + O=C(c1cc(Cc2n[nH]c(=O)c3ccccc23)ccc1F)N1CCN(C(=O)C2CC2)CC1 [Olaparib] (partner 8 µM)
Outline: (§1)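 The day after seeding in 1536-well plates, lung cancer cell lines were treated by pin tool with a single drug, or with a fixed anchor-drug dose together with five library-drug doses (not always all listed) in √10 steps. After 5 days, a combined fix-and-stain solution (final 0.05% Triton X-100, 1% formaldehyde, 1 ug/ml Hoechst) was added. Nuclei counted on 4× images gave relative viability as treated counts over vehicle counts, reported as the median of duplicate plates.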

Ricolinostat + Lapatinib = compound: O=C(CCCCCCNC(=O)c1cnc(N(c2ccccc2)c2ccccc2)nc1)NO [Ricolinostat] + CS(=O)(=O)CCNCc1ccc(-c2ccc3ncnc(Nc4ccc(OCc5cccc(F)c5)c(Cl)c4)c3c2)o1 [Lapatinib] (partner 2 µM)
Outline: as §1

TGX 221 + Luminespib = compound: CC1=CN2C(=O)C=C(N=C2C(=C1)C(C)NC3=CC=CC=C3)N4CCOCC4 [TGX 221] + CCNC(=O)c1noc(-c2cc(C(C)C)c(O)cc2O)c1-c1ccc(CN2CCOCC2)cc1 [Luminespib] (partner 0.01 µM)
Outline: as §1

[1] = compound: O=C(CCCCCCNC(=O)c1cnc(N(c2ccccc2)c2ccccc2)nc1)NO [Ricolinostat] + Nc1ncn([C@H]2C[C@H](O)[C@@H](CO)O2)c(=O)n1 [Decitabine] (partner 2 µM)
Outline: as §1

Cell Line	relative viability (TGX 221 + Olaparib; first compound 0.08 µM)	relative viability (TGX 221 + Olaparib; first compound 0.253 µM)	relative viability (TGX 221 + Olaparib; first compound 0.8 µM)	relative viability (TGX 221 + Olaparib; first compound 2.53 µM)	relative viability (TGX 221 + Olaparib; first compound 8 µM)	relative viability (Ricolinostat + Lapatinib; first compound 0.08 µM)	relative viability (Ricolinostat + Lapatinib; first compound 0.253 µM)	relative viability (Ricolinostat + Lapatinib; first compound 0.8 µM)	relative viability (Ricolinostat + Lapatinib; first compound 2.53 µM)	relative viability (TGX 221 + Luminespib; first compound 0.08 µM)	relative viability (TGX 221 + Luminespib; first compound 0.253 µM)	relative viability (TGX 221 + Luminespib; first compound 0.8 µM)	relative viability (TGX 221 + Luminespib; first compound 2.53 µM)	relative viability (TGX 221 + Luminespib; first compound 8 µM)	relative viability ([1]; first compound 0.08 µM)	relative viability ([1]; first compound 0.253 µM)	relative viability ([1]; first compound 0.8 µM)	relative viability ([1]; first compound 2.53 µM)
NCI-H1650	0.684	0.704	0.954	0.719	0.642	0.577	0.72	0.6	0.752	0.197	0.191	0.201	0.169	0.185	0.489	0.346	0.358	0.311
NCI-H1651	0.183	0.199	0.166	0.161	0.18	0.6	0.702	0.731	0.636	0.828	0.653	0.741	0.592	0.568	0.466	0.644	0.56	0.521
NCI-H1437	0.649	0.589	0.678	0.603	0.632	0.705	0.767	0.714	0.642	1.09	1.11	1.16	1.1	0.929	0.448	0.545	0.543	0.467
SK-MES-1	0.65	0.691	0.744	0.554	0.465	0.403	0.466	0.439	0.456	0.664	0.721	0.639	0.324	0.229	0.402	0.384	0.344	0.375
NCI-H647	0.443	0.385	0.553	0.403	0.447	0.915	1.11	1.07	0.627	0.186	0.164	0.263	0.17	0.118	0.365	0.317	0.31	0.312
LK-2	0.65	0.752	0.551	0.632	0.862	0.908	1.2	0.941	0.913	0.17	0.2	0.187	0.214	0.207	0.268	0.364	0.24	0.212
LU99A	0.251	0.258	0.297	0.251	0.249	0.833	0.853	0.846	0.541	0.251	0.31	0.208	0.249	0.316	0.883	0.899	0.722	0.748
NCI-H661	0.743	0.764	0.765	0.748	0.76		0.544	0.542	0.72	0.906	0.919	0.899	0.956	0.939	0.552	0.511	0.581	0.489
NCI-H520	0.329	0.256	0.262	0.22	0.247		0.745	0.851	0.786	0.23	0.196	0.188	0.205	0.211		0.521	0.513	0.426
NCI-H1666	0.751	0.748	0.754	0.727	0.774	0.564	0.65	0.542	0.374	1.08	0.977	1.03	1.02	0.975	0.71	0.764	0.758	0.717
EKVX	0.75	0.758	0.792	0.691	0.709		0.205	0.205	0.19	0.832	0.724	0.791	0.715	0.738	0.31	0.322	0.299	0.346
HARA	0.658	0.917	0.868	0.629	0.711	0.503	0.676	0.659	0.411	0.827	0.863	0.812	0.702	0.668	0.335	0.408	0.464	0.405
A-427	0.635	0.704	0.714	0.625	0.71	0.892	1.01	0.897	1.02	0.892	0.82	0.863	0.843	0.861	0.547	0.591	0.559	0.558
NCI-H2087	0.646	0.66	0.501	0.683	0.598	1.07	1.05	0.921	0.698	0.118	0.16	0.151	0.15	0.166	0.23	0.318	0.24	0.145
NCI-H460	0.4	0.438	0.389	0.405	0.38	0.844	0.91	1.02	0.764	0.0366	0.029	0.0351	0.04	0.028	0.496	0.429	0.519	0.427
PC-14	0.249	0.265	0.262	0.222	0.252	0.243	0.291	0.263	0.172	0.146	0.135	0.138	0.133	0.151	0.22	0.19	0.193	0.22
NCI-H2009	0.685	0.746	0.69	0.639	0.537	0.812	0.887	0.832	0.74	1.05	1.02	1.09	1.02	0.665	0.376	0.353	0.35	0.373
COR-L 105	0.649	0.696	0.712	0.584	0.557	0.342	0.396	0.399	0.384	0.952	0.792	0.663	0.654	0.579	0.675	0.65	0.7	0.669
